According to patent US20250144067A1, “PERSONALIZED STARVATION THERAPY FOR CANCER” (Faeth Therapeutics, Inc., priority 2021, published 2025):
Structures can show the parent of a compound that is named as a salt.

Key:
[1] = tested on: NCI-H292 lung cancer cells; test: FDA drug screening, complete media vs cholesterol-free media without statin (TABLE 1); format: cell-based, human
[2] = tested on: NCI-H292 lung cancer cells; test: FDA drug screening, complete media vs cholesterol-free media with simvastatin (TABLE 2); format: cell-based, human; conditions: for Cholesterol-free media + simvastatin (0.04 μM) / Complete Media: NCI-H292 cells
[3] = Complete minus Cholesterol-free, >0 enhanced anti-cancer activity, about 0 neutral, <0 antagonist
[4] = NCI-H292 cells, cholesterol-free media without statin
[5] = drug in cholesterol-free media with simvastatin 0.04 μM
[6] = complete media vs cholesterol-free media + simvastatin (0.04 μM), >0 enhanced anti-cancer activity, about 0 neutral, <0 antagonist
[7] = complete vs cholesterol-free media, greater than 0 enhanced anti-cancer activity, about 0 neutral, below 0 antagonists
[8] = NCI-H292 cells, cholesterol-free media without statin, FDA drug library screen
[9] = NCI-H292 cells, complete media, FDA drug library screen
[10] = cholesterol-free media with simvastatin 0.04 μM, FDA drug library screen (TABLE 2)
[11] = complete media, FDA drug library screen (TABLE 2)
[12] = complete media minus cholesterol-free media + simvastatin (0.04 μM), >0 enhanced anti-cancer activity, about 0 neutral, <0 antagonist
[13] = Complete minus Cholesterol-free, […]
[14] = FDA drug library screen, cholesterol-free media with simvastatin 0.04 μM
[15] = FDA drug library screen, complete media
[16] = complete media minus cholesterol-free media + simvastatin, >0 enhanced anti-cancer activity, about 0 neutral, <0 antagonist
[17] = Complete minus Cholesterol-free, greater than 0 enhanced anti-cancer activity, about 0 neutral, below 0 antagonists
[18] = NCI-H292 cells in cholesterol-free media without statin
[19] = NCI-H292 cells in complete media
[20] = FDA library drug in cholesterol-free media with simvastatin 0.04 μM
[21] = FDA library drug in complete media

Molecule: Cc1ccc(NC(=O)C2(c3ccc4c(c3)OC(F)(F)O4)CC2)nc1-c1cccc(C(=O)O)c1 [Lumacaftor]
- Difference [1, 3]: −0.19
- Cholesterol-free [1, 4]: 1.044
- Complete ([1]; NCI-H292 cells, complete media): 0.854
- Cholesterol-free media + simvastatin (0.04 μM) [2, 5]: 1.744
- Complete Media ([2]; drug in complete media): 1.539
- Difference [2, 6]: −0.20

Molecule: COC(=O)[C@H]1[C@H]2C[C@@H]3c4[nH]c5cc(OC)ccc5c4CCN3C[C@H]2C[C@@H](OC(=O)c2cc(OC)c(OC)c(OC)c2)[C@@H]1OC [Reserpine (hydrochloride)]
- Cholesterol-free [1, 4]: 1.178
- Complete ([1]; NCI-H292 cells, complete media): 0.8568
- Difference [1, 7]: −0.32
- Cholesterol-free media + simvastatin (0.04 μM) [2, 5]: 1.074
- Complete Media ([2]; drug in complete media): 0.834
- Difference [2, 6]: −0.24

Molecule: O=C(O)/C=C/c1ccc(Cn2ccnc2)cc1 [Ozagrel (sodium)]
- Difference [1, 3]: −0.07
- Cholesterol-free [1, 8]: 1.134
- Complete [1, 9]: 1.068
- Cholesterol-free media + simvastatin (0.04 μM) [2, 10]: 1.082
- Complete Media [2, 11]: 1.026
- Difference [2, 12]: −0.06

Molecule: Heparin (Lithium salt)
- Difference [1, 13]: −0.22
- Cholesterol-free [1, 4]: 1.174
- Complete ([1]; NCI-H292 cells, complete media): 0.9566
- Complete Media ([2]; complete media, […]): 1.136
- Difference ([2]; complete media minus cholesterol-free media + simvastatin, […]): 0.08

Molecule: CC1CCC(C(C)C)C(O)C1 (racemic) [DL-Menthol]
- Cholesterol-free [1, 4]: 1.299
- Complete ([1]; NCI-H292 cells, complete media): 0.8907
- Difference [1, 7]: −0.41
- Cholesterol-free media + simvastatin (0.04 μM) [2, 14]: 0.8922
- Complete Media [2, 15]: 1.05
- Difference [2, 16]: 0.16

Molecule: COc1cccc2c1C(=O)c1c(O)c3c(c(O)c1C2=O)C[C@@](O)(C(=O)CO)C[C@@H]3O[C@H]1C[C@H](N)[C@@H](O)[C@H](C)O1 [Epirubicin (hydrochloride)]
- Difference [1, 3]: −0.01
- Cholesterol-free [1, 8]: −0.006463
- Complete [1, 9]: −0.01887
- Cholesterol-free media + simvastatin (0.04 μM) [2, 14]: 0.1295
- Complete Media [2, 15]: −0.004785
- Difference [2, 6]: −0.13

Molecule: CCCN(CCC)C(=O)C(CCC(=O)O)NC(=O)c1ccccc1 (centres unmarked) [Proglumide]
- Cholesterol-free [1, 8]: 0.7154
- Complete [1, 9]: 1.407
- Difference ([1]; complete vs cholesterol-free media, >0 enhanced anti-cancer activity, about 0 neutral, <0 antagonist): 0.69
- Cholesterol-free media + simvastatin (0.04 μM) [2, 10]: 0.8053
- Complete Media [2, 11]: 0.7842
- Difference [2, 12]: −0.02

Molecule: Cc1cn(-c2cc(NC(=O)c3ccc(C)c(Nc4nccc(-c5cccnc5)n4)c3)cc(C(F)(F)F)c2)cn1
- Difference [1, 17]: −0.54
- Cholesterol-free [1, 18]: 1.23
- Complete [1, 19]: 0.6857
- Cholesterol-free media + simvastatin (0.04 μM) [2, 14]: 0.854
- Complete Media [2, 15]: 0.7821
- Difference [2, 6]: −0.07

Molecule: Nc1ccc(S(N)(=O)=O)cc1 [Sulfanilamide]
- Cholesterol-free [1, 4]: 1.317
- Complete ([1]; NCI-H292 cells, complete media): 1.005
- Difference [1, 7]: −0.31
- Cholesterol-free media + simvastatin (0.04 μM) [2, 20]: 1.221
- Complete Media [2, 21]: 0.9133
- Difference [2, 6]: −0.31

Molecule: CN(C/C=C/C#CC(C)(C)C)Cc1cccc2ccccc12 [Terbinafine hydrochloride]
- Difference [1, 17]: −0.57
- Cholesterol-free [1, 18]: 1.793
- Complete [1, 19]: 1.222
- Cholesterol-free media + simvastatin (0.04 μM) [2, 14]: 1.241
- Complete Media [2, 15]: 1.124
- Difference [2, 6]: −0.12

Molecule: CO[C@H]1O[C@@H]2O[C@@]3(C)CC[C@H]4[C@H](C)CC[C@@H]([C@H]1C)[C@@]24OO3 [Artemether]
- Difference [1, 3]: −0.26
- Cholesterol-free [1, 4]: 1.059
- Complete ([1]; NCI-H292 cells, complete media): 0.7961
- Cholesterol-free media + simvastatin (0.04 μM) [2, 14]: 0.6524
- Complete Media [2, 15]: 0.841
- Difference [2, 16]: 0.19

Molecule: C[n+]1ccccc1/C=N/O.[Cl-] [Pralidoxime (chloride)]
- Difference [1, 13]: −0.31
- Cholesterol-free [1, 4]: 1.203
- Complete ([1]; NCI-H292 cells, complete media): 0.8976
- Cholesterol-free media + simvastatin (0.04 μM) [2, 20]: 1.051
- Complete Media [2, 21]: 0.7574
- Difference ([2]; complete media vs cholesterol-free media + simvastatin (0.04 μM), […]): −0.29

Molecule: CN(C)[C@@H]1C(O)=C(C(N)=O)C(=O)[C@@]2(O)C(O)=C3C(=O)c4c(O)cccc4[C@@](C)(O)[C@H]3[C@H](O)[C@@H]12 [Oxytetracycline (hydrochloride)]
- Difference [1, 17]: −0.72
- Cholesterol-free [1, 18]: 1.728
- Complete [1, 19]: 1.007
- Cholesterol-free media + simvastatin (0.04 μM) [2, 10]: 0.991
- Complete Media [2, 11]: 0.9652
- Difference [2, 12]: −0.03

Molecule: Sitagliptin (phosphate monohydrate)
- Cholesterol-free [1, 4]: 1.047
- Complete ([1]; NCI-H292 cells, complete media): 0.6455
- Difference [1, 7]: −0.40
- Cholesterol-free media + simvastatin (0.04 μM) [2, 5]: 1.13
- Complete Media ([2]; drug in complete media): 0.959
- Difference [2, 6]: −0.17
